Assay results taken from publication PMC7646200 (Xenobiotica; the fate of foreign compounds in biological …, 2020).
“Also recorded” adds a separate entry of the source. Where two headings read alike, the source gives them in different places.

What was measured:
[1] = Sulfonation of 7-hydroxycoumarin derivatives by rat liver cytosol; conditions: male, Wistar, rat, pH 7.4
rat liver cytosol [2] = assay: as above; conditions: rat liver cytosol; for sulfonation efficiency, intrinsic clearance (Vmax/Km): rank among species; for Vmax: value (95 % confidence interval)
[3] = Sulfonation of 7-hydroxycoumarin derivatives by pig liver cytosol; conditions: female, pig, liver cytosol, pH 7.4
pig liver cytosol [4] = assay: as above; conditions: pig liver cytosol; value (95 % confidence interval)
[5] = Sulfonation of 7-hydroxycoumarin derivatives by dog liver cytosol; conditions: both, Beagle, dog, liver cytosol, pH 7.4
dog liver cytosol [6] = assay: as above; conditions: for Vmax: value (95 % confidence interval); for intrinsic clearance relative to the highest intrinsic clearance value: dog cytosol, highest value = 1 by rat cytosol; for intrinsic clearance (Vmax/Km): rank among species
[7] = Sulfonation of 7-hydroxycoumarin derivatives by human liver cytosol; conditions: male, human, liver cytosol, pH 7.4
human liver cytosol [8] = assay: as above; conditions: human liver cytosol; value (95 % confidence interval)
mouse liver cytosol [9] = assay: Sulfonation of 7-hydroxycoumarin derivatives by mouse liver cytosol; conditions: for sulfonation rate: 10 μM substrate; for Vmax: mouse liver cytosol, value (95 % confidence interval)
[10] = Sulfonation of 7-hydroxycoumarin derivatives by sheep liver cytosol; conditions: female, sheep, liver cytosol, pH 7.4
sheep liver cytosol [11] = assay: as above; conditions: sheep liver cytosol; for Vmax: value (95 % confidence interval)
[12] = Sulfonation of 7-hydroxycoumarin derivatives by rabbit liver cytosol; conditions: female, Dutch belted, rabbit, liver cytosol, pH 7.4
rabbit liver cytosol [13] = assay: as above; conditions: rabbit liver cytosol; for Vmax: value (95 % confidence interval); for sulfonation rate: 10 μM substrate
[14] = Sulfonation of 7-hydroxycoumarin derivatives by mouse liver cytosol; conditions: DBA/2N/Kuo, mouse, pH 7.4
[15] = system: liver cytosol of human, rat, mouse, rabbit, dog, pig and sheep; type: in vitro ADME; conditions: for sulfonation rate: 10 μM substrate, compared among derivatives over all species
human liver cytosol [16] = conditions: pH 7.4
mouse liver cytosol [17] = conditions: pH 7.4
rat liver cytosol [18] = conditions: pH 7.4
pig liver cytosol [19] = conditions: pH 7.4
rabbit liver cytosol [20] = conditions: pH 7.4
dog liver cytosol [21] = conditions: for Km: pH 7.4
sheep liver cytosol [22] = conditions: pH 7.4
in vitro = conditions: male, Wistar, rat, pH 7.4

Km ([1]; liver cytosol) | sulfonation rate (mouse liver cytosol [9]; male mouse liver cytosol) | Km ([14]; liver cytosol) | SMILES | sulfonation efficiency, intrinsic clearance (Vmax/Km) (rat liver cytosol [2]) | Vmax (rat liver cytosol [2]) | Km [3] | Vmax (pig liver cytosol [4]) | Km [5] | Vmax (dog liver cytosol [6]; dog liver cytosol) | Km [7] | Vmax (human liver cytosol [8]) | Vmax (mouse liver cytosol [9]) | Km [10] | Vmax (sheep liver cytosol [11]) | Km [12] | Vmax (rabbit liver cytosol [13]) | intrinsic clearance (Vmax/Km) (dog liver cytosol [6]; dog liver cytosol) | sulfonation rate (rabbit liver cytosol [13]) | Km (mouse liver cytosol [17]) | other results
0.99 µM |  | 0.14 µM | CCc1c(C)c2ccc(O)c(C)c2oc1=O [compound 6, 3-ethyl-4,8-dimethyl-7-hydroxycoumarin] |  | 130 (73–180) nmol/(min * g protein) | 1.8 µM | 46 (22–69) nmol/(min * g protein) | 0.38 µM | 630 (280–980) nmol/(min * g protein) | 0.51 µM | 99 (74–130) nmol/(min * g protein) | 14 (11–17) nmol/(min * g protein) | 0.48 µM | 280 (190–370) nmol/(min * g protein) | 1.7 µM | 280 (200–350) nmol/(min * g protein) | highest |  |  | intrinsic clearance relative to the highest intrinsic clearance value (dog liver cytosol [6]): > 70%; sulfonation rate (dog liver cytosol [6]; dog liver cytosol, 10 μM substrate): Slow
0.8 µM | Slow | 0.11 µM | Cc1c(C)c2ccc(O)c(C)c2oc1=O [compound 7, 3,4,8-trimethyl-7-hydroxycoumarin] | efficiently | 440 (170–710) nmol/(min * g protein) | 2.1 µM | 59 (28–91) nmol/(min * g protein) | 4.3 µM | 1300 (0–5200) nmol/(min * g protein) | 0.65 µM | 65 (54–76) nmol/(min * g protein) | 11 (6.8–14) nmol/(min * g protein) | 0.71 µM | 300 (250–350) nmol/(min * g protein) |  | No MM |  |  |  | 
 |  |  | Cc1ccc(-c2cc3ccc(O)cc3oc2=O)cc1 [compound 8, 3-(4-methylphenyl)-7-hydroxycoumarin] | efficiently | 170 (92–260) nmol/(min * g protein) | 2.8 µM | 12 (2–22) nmol/(min * g protein) | 0.17 µM | 56 (38–77) nmol/(min * g protein) | 0.27 µM | 6.5 (1.6–36) nmol/(min * g protein) | 26 (16–36) nmol/(min * g protein) | 5.3 µM | 154 (83–230) nmol/(min * g protein) | 7.3 µM | 310 (35–580) nmol/(min * g protein) |  | Slow |  | sulfonation rate [15]: highest sulfonation rates; Km [1]: 0.36 µM
 |  |  | O=c1oc2cc(O)ccc2cc1-n1cncn1 [compound 14, 3-(1H-1,2,4-tirazol-1-yl)-7-hydroxycoumarin] | efficiently | 230 (200–260) nmol/(min * g protein) |  | 39 (13–65) nmol/(min * g protein) |  | 200 (180–220) nmol/(min * g protein) |  | 69 (55–84) nmol/(min * g protein) | 78 (69–88) nmol/(min * g protein) |  | 220 (93–350) nmol/(min * g protein) |  | 32 (25–39) nmol/(min * g protein) |  | Slow | 4.9 µM | Km (human liver cytosol [16]): 4.7 µM; Km (rat liver cytosol [18]): 1.3 µM; Km (pig liver cytosol [19]): 3 µM; Km (rabbit liver cytosol [20]): 2.8 µM; Km (dog liver cytosol [21]): 3.9 µM; Km (sheep liver cytosol [22]): 12 µM
 |  |  | O=c1oc2cc(O)ccc2cc1-c1cccnc1 [compound 13, 3-(4-pyridin-3-yl)-7-hydroxycoumarin] | efficiently |  |  | 24 (17–31) nmol/(min * g protein) |  | 360 (330–430) nmol/(min * g protein) |  | 59 (53–71) nmol/(min * g protein) | 160 (110–200) nmol/(min * g protein) |  | 80 (0–230) nmol/(min * g protein) |  | 120 (100–210) nmol/(min * g protein) |  | Slow | 4.3 µM | Km (human liver cytosol [16]): 6.6 3.7–6.8) μM; Km (rat liver cytosol [18]): 2.3 µM; Km (pig liver cytosol [19]): 4 µM; Km (rabbit liver cytosol [20]): 10 µM; Km (dog liver cytosol [21]): 3.3 µM; Km (sheep liver cytosol [22]): 6.8 µM; sulfonation rate (sheep liver cytosol [11]; 10 μM substrate): Slow
 |  |  | O=c1oc2cc(O)ccc2cc1-c1ccc(O)cc1 [compound 9, 3-(4-hydroxyphenyl)-7-hydroxycoumarin] |  |  |  |  | 0.051 µM | 88 (65–120) nmol/(min * g protein) |  |  | 160 (130–190) nmol/(min * g protein) | 1.27 µM | 41 (26–56) nmol/(min * g protein) | 0.95 µM | 45 (30–62) nmol/(min * g protein) | highest |  |  | sulfonation rate (rat liver cytosol [2]; 10 μM substrate): Slow; intrinsic clearance relative to the highest intrinsic clearance value (dog liver cytosol [6]): > 70%; Km [14]: 0.46 µM
 |  |  | COc1cc2ccc(=O)oc2cc1O [compound 3, 6-methoxy-7-hydroxycoumarin] |  | 540 (510–570) nmol/(min * g protein) | 0.11 µM | 15 (10–20) nmol/(min * g protein) | 0.22 µM | 420 (390–450) nmol/(min * g protein) | 3.5 µM | 155 (6–300) nmol/(min * g protein) | No MM | 0.13 µM | 260 (240–290) nmol/(min * g protein) | 0.99 µM | 160 (110–220) nmol/(min * g protein) |  |  | no MM | intrinsic clearance (Vmax/Km) (dog liver cytosol [21]): highest; Km (in vitro): 0.65 µM
 | Slow | 0.11 µM | CCc1c(C)c2ccc(O)cc2oc1=O [compound 5, 3-ethyl-4-methyl-7-hydroxycoumarin] |  | No MM | 1.5 µM | 26 (12–40) nmol/(min * g protein) | 0.45 µM | 360 (260–460) nmol/(min * g protein) | 2.1 µM | 97 (76–120) nmol/(min * g protein) | 5.3 (3.8–6.8) nmol/(min * g protein) | 1.6 µM | 340 (220–460) nmol/(min * g protein) | 1.3 µM | 58 (21–95) nmol/(min * g protein) | highest |  |  | 
 |  |  | CN(C)c1ccc(-c2cc3ccc(O)cc3oc2=O)cc1 [compound 12, 3-(4-dimethylaminophenyl)-7-hydroxycoumarin] |  | 520 (280–790) nmol/(min * g protein) | 2.8 µM | 210 (140–290) nmol/(min * g protein) | 0.44 µM | 600 (330–970) nmol/(min * g protein) | 0.39 µM | 180 (75–320) nmol/(min * g protein) | 230 (64–540) nmol/(min * g protein) | 0.89 µM | 440 (360–570) nmol/(min * g protein) | 0.67 µM | 290 (90–560) nmol/(min * g protein) | highest |  |  | sulfonation rate [15]: highest sulfonation rates; intrinsic clearance (Vmax/Km), similarity between species ([15]; compared with other 7-hydroxycoumarin derivatives): more similar between species; Km [1]: 0.67 µM; Km [14]: 0.49 µM

SMILES | Km ([1]; liver cytosol) | sulfonation rate (mouse liver cytosol [9]; male mouse liver cytosol) | Km ([14]; liver cytosol) | sulfonation efficiency, intrinsic clearance (Vmax/Km) (rat liver cytosol [2]) | Vmax (rat liver cytosol [2]) | Km [3] | Vmax (pig liver cytosol [4]) | Km [5] | Vmax (dog liver cytosol [6]; dog liver cytosol) | Km [7] | Vmax (human liver cytosol [8]) | Vmax (mouse liver cytosol [9]) | Km [10] | Vmax (sheep liver cytosol [11]) | Km [12] | Vmax (rabbit liver cytosol [13]) | intrinsic clearance (Vmax/Km) (dog liver cytosol [6]; dog liver cytosol) | sulfonation rate (rabbit liver cytosol [13]) | Km (mouse liver cytosol [17]) | other results
O=c1ccc2ccc(O)cc2o1 [compound 1, 7-hydroxycoumarin, reference compound] | 0.18 µM | Slow |  | efficiently; also recorded: highest intrinsic clearance | 410 (360–460) nmol/(min * g protein) | 4.3 µM | 65 (29–100) nmol/(min * g protein) | 0.27 µM | 380 (330–440) nmol/(min * g protein) | 1.9 µM | 84 (26–140) nmol/(min * g protein) | 260 (210–320) nmol/(min * g protein) | 0.41 µM | 250 (200–310) nmol/(min * g protein) | 1.7 µM | 200 (100–310) nmol/(min * g protein) |  |  |  | sulfonation rate (mouse liver cytosol [9]; female mouse liver cytosol): Slow
